In US9655878B2, “Composition comprising coumestrol or a bean extract containing coumestrol” (AMOREPACIFIC CORPORATION, priority 2010, dated 2017):

What was measured:
[1] = system: 3T3-L1 mouse preadipocytes; assay: Inhibition of adipocyte differentiation, Oil Red O staining of triglycerides; type: cell-based; set-up: dose or concentration left out as unconfirmed; details: coumestrol administered continuously, about 7 days differentiation; compared with rosiglitazone and berberine
Experimental: (§1) In order to evaluate the coumestrol's effect of inhibiting adipocyte differentiation, […] coumestrol (CMS) was administered continuously while 3T3-L1 mouse preadipocytes (CL-173, ATCC) were differentiated into adipocytes. […] Rosiglitazone (Rosi), which is known to promote adipocyte differentiation, was used as positive control and […] berberine (BBR), which is known to inhibit adipocyte differentiation, was used as negative control. On the day when adipocyte differentiation was started and on days 2, 4 and 6, the test substance was administered and the medium was changed. The adipocyte differentiation was carried out for about 7 days when the adipocyte differentiation was completed in the positive control group.
Then, differentiation of adipocytes was identified by staining triglycerides in the cells with Oil Red O (Sigma).

[2] = system: aP2, Acrp30, PPAR, SREBP1c and FAS mRNA in adipocytes; assay: Expression of adipocyte-specific genes by Q-PCR; type: cell-based, mouse; set-up: dose or concentration left out as unconfirmed; details: coumestrol, relative to untreated group
Experimental: as §1
Also, expression of adipocyte-specific genes in the in the adipocytes was investigated by Q-PCR. The genes tested were aP2 (fatty acid binding protein 4, adipocyte specific type), Acrp30 (adiponectin), PPAR (peroxisome proliferator-activated receptor), SREBP1c (sterol regulatory element binding protein 1c) and FAS (fatty acid synthase), which are used as molecular markers of adipocyte differentiation and fatty acid synthesis.

mouse spleen cells = assay: Immune cell proliferating activity (CCK-8); type: cell-based, ICR mouse; details: 44 hours, relative to untreated group (100)
Experimental: Spleen was aseptically removed from an ICR mouse sacrificed by cervical dislocation. The spleen was washed with an RPMI 1640 solution and lightly smashed with a sterilized glass rod to isolate the mouse spleen cells. A suspension of the isolated cells was passed through a 200-mesh stainless steel sieve (Sigma Chemical Co., St. Louis, Mo., USA) and centrifuged for 10 minutes at 4° C. and 3,000 rpm in a 50-mL centrifuge tube. The resulting cell pellets were suspended in a lysing buffer (Tris-buffered ammonium chloride; 0.87% NH4Cl, pH 7.2) for 5 minutes to remove red blood cells. The cells were washed twice with RPMI by centrifugal washing, diluted to 5.0×10^6 cells/mL in 10%-FBS RPMI 1640, and seeded on a 96-well plate, with 90 μL per each well, for measurement of cell proliferating activity. After preparing a stock solution such that the final concentration of coumestrol was 0.1 or 1 μM and adding 10 μL to each well, the cells were cultured for 44 hours and the proliferating activity of the spleen cells was measured (CCK-8, Dojindo Laboratories, Japan). 10 μL of 10 μg/mL LPS was used as positive control.

[3] = system: Human umbilical vein endothelial cells (HUVECs); assay: Nicotine detoxifying effect, viability of vascular endothelial cells; type: cell-based; details: HUVEC, 25 mM nicotine, 24 hours, relative to untreated group, nicotine only 55.1
Experimental: Human umbilical vein endothelial cells (HUVECs, CRL-2873, ATCC) were used to evaluate the coumestrol's effect against nicotine which is a major toxic substance included in cigarettes. HUVECs were cultured under the condition of 37° C. and 5% CO2 using the microvascular endothelial cell growth medium-2 (EGM-2). The cells were seeded onto a 96-well plate, with 2×10^4 cells per well, and cultured for about 24 hours in a medium containing 10% FBS until ˜80% confluency. After treating with nicotine to a final concentration of 25 mM, the cells were cultured for 24 hours with 0.1, 1 or 10 μM coumestrol, except for the negative control group.

SH-SY5Y cells [4] = assay: cells; type: cell-based; details: Homo sapiens, read-out: Viability of nerve cells (%)
Experimental: (§2) SH-SY5Y cells (CRL-2266, ATCC) were used to evaluate the coumestrol's effect of protecting nerve cells from neurotoxins. The cells were cultured in a medium comprising 90% DMEM, 10% fetal calf serum, 100 IU/mL penicillin and 100 μg/mL streptomycin under the condition of 37° C. and 5% CO2. When the cells grew confluent, they were harvested with trypsin, diluted on a 96-well plate to 1×10^4 cells per well, and then grafted onto a culture dish. 24 hours later, after treating the cultured cells with 0.01, 0.1 or 1 μM coumestrol, the cells were treated with 50 μM 6-OHDA 2 hours later to induce cytotoxicity. A negative control group was treated only with 50 μM 6-OHDA. Also, mitochondrial potential of the cells was measured using the JC-1 fluorescent reagent (Beyotime, China).

SH-SY5Y cells [5] = assay: Inhibition of decline of mitochondrial potential (JC-1); type: cell-based; details: 50 μM 6-OHDA, negative control 0
Experimental: as §2

SH-SY5Y cells [6] = assay: Scavenging of reactive oxygen species produced by 6-OHDA (DCFH-DA); type: cell-based; details: 50 μM 6-OHDA, 6 hours, relative to negative control
Experimental: The same cells used in Test Example 4-1 were cultured under the same condition. The cultured cells were treated with 0.01, 0.1 or 1 μM coumestrol and then treated with 50 μM 6-OHDA 2 hours later to induce increase of reactive oxygen species (ROS) in the cells. After culturing the cells for 6 hours in an incubator, the quantity of ROS in the cells was measured using DCFH-DA and the decrease of the ROS was evaluated relative to the negative control group. The fluorescence intensity of DCF was measured with the Wallac VICTOR2 fluorometer (Wallac, Turku, Finland) at excitation wavelength of 485 nm and emission wavelength of 530 nm. ROS scavenging effect (%) relative to the negative control group was calculated from the measured fluorescence intensity.

[7] = cited from earlier work

Which results are given for `O=c1oc2cc(O)ccc2c2oc3cc(O)ccc3c12` [Coumestrol, 3,9-dihydroxy-6H-benzofuro(3,2-c)(1)benzopyran-6-one]?
adipocyte differentiation (Oil Red O stained area) [1]: remarkably decreased; mRNA expression of the molecular markers of adipocyte differentiation and fatty acid synthesis [2]: remarkably decreased; activity at 0.1 µM (mouse spleen cells; 0.1 μM): 278%; activity at 1 µM (mouse spleen cells; 1 μM): 283%; viability at 0.1 µM ([3]; 0.1 μM): 67.2%; viability at 1 µM ([3]; 1 μM): 72.2%; viability at 10 µM ([3]; 10 μM): 88.9%; viability at 0.01 µM (SH-SY5Y cells [4]): 94.4%; viability at 0.1 µM (SH-SY5Y cells [4]): 96.5%; viability at 1 µM (SH-SY5Y cells [4]): 98.2%; Effect of inhibiting decline of mitochondrial potential (%) (SH-SY5Y cells [5]; 0.01 μM): 13.2%; Effect of inhibiting decline of mitochondrial potential (%) (SH-SY5Y cells [5]; 0.1 μM): 29.1%; Effect of inhibiting decline of mitochondrial potential (%) (SH-SY5Y cells [5]; 1 μM): 43.0%; ROS scavenging effect (%) (SH-SY5Y cells [6]; 0.01 μM): 73.0%; ROS scavenging effect (%) (SH-SY5Y cells [6]; 0.1 μM): 86.7%; ROS scavenging effect (%) (SH-SY5Y cells [6]; 1 μM): 93.5%; bioavailability upon oral administration [7]: about 11.7%
